Laboratory results from patent US20250230147A1, “LACTAMS AS CBL-B INHIBITORS” (Genentech, Inc., priority 2021, published 2025).
Counter-ions that a name gives are not always drawn.

Assays:
Cbl-b = Cbl-b (Homo sapiens (Human), UniProt Q13191); assay: Cbl-b LCK Ub TR-FRET assay (Cbl-b Lck HTRF); assay type: biochemical
Procedure, shortened: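 Biotin-Cbl-b preincubated with compound (10-point 3-fold series) 60 min, then His-LCK with 1 mM ATP (2× mixture) added for 90 min at room temperature. Ubiquitination detected by TR-FRET using HA-ubiquitin/UBE2D2 adduct, anti-HA-D2 and streptavidin-Eu; IC50 normalised to no-LCK and DMSO controls.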

c-Cbl = c-Cbl (Homo sapiens (Human), UniProt P22681); assay: C-Cbl LCK Ub TR-FRET assay (c-cbl Lck HTRF); assay type: biochemical; settings: for (fold-selectivity): C-cbl Lck HTRF IC50 relative to Cbl-b Lck HTRF IC50
Procedure, shortened: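 Detection reagents added, brief spin, 20 min RT. IC50 fit normalized to no-LCK (low) and DMSO (high) controls.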

Cbl-b, sequence (Q13191 40-426): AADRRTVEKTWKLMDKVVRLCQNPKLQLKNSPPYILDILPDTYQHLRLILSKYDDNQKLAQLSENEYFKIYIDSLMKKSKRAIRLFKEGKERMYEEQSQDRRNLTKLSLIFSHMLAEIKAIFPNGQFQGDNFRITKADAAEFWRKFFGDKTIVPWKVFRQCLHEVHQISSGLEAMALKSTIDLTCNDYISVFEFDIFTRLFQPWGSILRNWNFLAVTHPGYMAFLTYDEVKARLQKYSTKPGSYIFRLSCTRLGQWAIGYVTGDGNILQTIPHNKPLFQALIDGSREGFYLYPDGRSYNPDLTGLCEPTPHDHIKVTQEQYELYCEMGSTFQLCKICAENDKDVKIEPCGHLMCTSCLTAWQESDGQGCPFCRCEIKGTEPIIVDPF
c-Cbl, sequence (P22681 47-435): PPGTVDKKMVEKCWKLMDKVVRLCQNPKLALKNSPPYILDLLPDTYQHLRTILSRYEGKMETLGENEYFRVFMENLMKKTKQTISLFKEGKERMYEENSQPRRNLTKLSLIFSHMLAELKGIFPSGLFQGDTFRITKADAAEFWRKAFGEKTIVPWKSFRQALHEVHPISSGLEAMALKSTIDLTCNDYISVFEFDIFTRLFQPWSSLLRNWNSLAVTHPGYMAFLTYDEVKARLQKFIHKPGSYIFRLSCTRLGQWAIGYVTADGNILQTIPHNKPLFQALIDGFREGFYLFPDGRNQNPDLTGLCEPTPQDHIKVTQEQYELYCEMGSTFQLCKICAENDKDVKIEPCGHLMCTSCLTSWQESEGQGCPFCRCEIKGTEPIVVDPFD

Row | Compound | IC50 (Cbl-b) [nM] | IC50 (c-Cbl) [nM] | (fold-selectivity) (c-Cbl)
1 | CC(C)C1(O)CN(Cc2cc3c(c(C(F)(F)F)c2)CN(c2cccc(C4([C@H](F)c5nncn5C)COC4)c2)C3=O)C1 [Compound 184, (S)-2-(3-(3-(fluoro(4-methyl-4H-1,2,4-triazol-3-yl)methyl)oxetan-3-yl)phenyl)-6-((3-hydroxy-3-isopropylazetidin-1-yl)methyl)-4-(trifluoromethyl)isoindolin-1-one] | 160 | 370 | 2.3x
2 | Cn1cnnc1CC1(c2cc(NC3CCC(F)(F)C3)nc(N3Cc4c(cccc4C(F)(F)F)C3=O)c2)COC1 (stereo not shown) [Compound 483, 2-(6-((3,3-difluorocyclopentyl)amino)-4-(3-((4-methyl-4H-1,2,4-triazol-3-yl)methyl)oxetan-3-yl)pyridin-2-yl)-4-(trifluoromethyl)isoindolin-1-one] | 1800 | 20000 | (12x)
3 | Cn1cnnc1CC1(c2cccc(N3Cc4c(cc(CNCC5COC5)cc4C(F)(F)F)C3=O)c2)CC(F)(F)C1 [Compound 368, 2-(3-(3,3-difluoro-1-((4-methyl-4H-1,2,4-triazol-3-yl)methyl)cyclobutyl)phenyl)-6-(((oxetan-3-ylmethyl)amino)methyl)-4-(trifluoromethyl)isoindolin-1-one] | 20 | 14 | (0.72x)
4 | CC(C)[C@H]1CNCCN1Cc1cc2c(c(C(F)(F)F)c1)CN(c1cccc(C3([C@H](F)c4nncn4C)COC3)c1)C2=O [Compound 97, 2-(3-(3-((S)-fluoro(4-methyl-4H-1,2,4-triazol-3-yl)methyl)oxetan-3-yl)phenyl)-6-(((S)-2-isopropylpiperazin-1-yl)methyl)-4-(trifluoromethyl)isoindolin-1-one] | 20 | 38 | 1.9x
5 | COC[C@@H]1CCCN1Cc1cc2c(c(C(F)(F)F)c1)CN(c1cccc(C3([C@@H](F)c4nncn4C)COC3)c1)C2=O [Compound 159, 2-(3-(3-((R)-fluoro(4-methyl-4H-1,2,4-triazol-3-yl)methyl)oxetan-3-yl)phenyl)-6-(((S)-2-(methoxymethyl)pyrrolidin-1-yl)methyl)-4-(trifluoromethyl)isoindolin-1-one] | 350 | 1200 | 3.4x
6 | CCNC(=O)CNc1cc(C2(Cc3nncn3C)CCC2)cc(N2Cc3c(cc(CNC4(C)CCC4)cc3C(F)(F)F)C2=O)n1 [Compound 307, N-ethyl-2-((4-(1-((4-methyl-4H-1,2,4-triazol-3-yl)methyl)cyclobutyl)-6-(6-(((1-methylcyclobutyl)amino)methyl)-1-oxo-4-(trifluoromethyl)isoindolin-2-yl)pyridin-2-yl)amino)acetamide formate] | 180 | 310 | 
7 | Cn1cnnc1C(F)(F)C1(c2cccc(N3Cc4c(cc(CNC5(C)CCC5)cc4C(F)(F)F)C3=O)c2)COC1 [Compound 287, 2-(3-(3-(difluoro(4-methyl-4H-1,2,4-triazol-3-yl)methyl)oxetan-3-yl)phenyl)-6-(((1-methylcyclobutyl)amino)methyl)-4-(trifluoromethyl)isoindolin-1-one] | 32 | 43 | (1.4x)
8 | Cn1cnnc1CC1(c2cccc(N3Cc4c(cc(CN5CCN[C@@H](C6CC6)C5)cc4C(F)(F)F)C3=O)c2)CC(F)(F)C1 [Compound 431, (S)-6-((3-cyclopropylpiperazin-1-yl)methyl)-2-(3-(3,3-difluoro-1-((4-methyl-4H-1,2,4-triazol-3-yl)methyl)cyclobutyl)phenyl)-4-(trifluoromethyl)isoindolin-1-one] | 48 | 42 | (0.87x)
9 | CC1CC(C)(NCc2cc3c(c(C(F)(F)F)c2)CN(c2cccc(C4(Cc5nncn5C)CC(F)(F)C4)c2)C3=O)C1 (stereo not shown) [Compound 353, 2-(3-(3,3-difluoro-1-((4-methyl-4H-1,2,4-triazol-3-yl)methyl)cyclobutyl)phenyl)-6-(((1,3-dimethylcyclobutyl)amino)methyl)-4-(trifluoromethyl)isoindolin-1-one formate] | 12 | 6.6 | 
